According to patent US9580409B2, “Modulators of opioid receptors and methods of use thereof” (priority 2011, dated 2017):

Legend:
mu-opioid receptor [1] = molecular target: T1, mu-opioid receptor (Homo sapiens, UniProt P35372); test: cell-based; conditions: class symbols; read-out: BArr Activity
Target sequence in this assay (P35372 whole entry, species assumed): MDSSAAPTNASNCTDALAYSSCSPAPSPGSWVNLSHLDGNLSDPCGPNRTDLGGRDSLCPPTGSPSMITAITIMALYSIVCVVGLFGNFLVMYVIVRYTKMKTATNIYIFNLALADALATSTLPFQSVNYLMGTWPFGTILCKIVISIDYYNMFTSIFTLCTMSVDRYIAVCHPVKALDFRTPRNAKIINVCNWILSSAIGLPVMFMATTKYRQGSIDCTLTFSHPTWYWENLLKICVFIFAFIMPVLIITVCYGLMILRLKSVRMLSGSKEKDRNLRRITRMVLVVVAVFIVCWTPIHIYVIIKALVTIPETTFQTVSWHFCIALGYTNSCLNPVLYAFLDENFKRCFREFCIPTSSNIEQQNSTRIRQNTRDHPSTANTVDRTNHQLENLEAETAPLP
Target sequence in this assay (P32121 whole entry partner, species assumed): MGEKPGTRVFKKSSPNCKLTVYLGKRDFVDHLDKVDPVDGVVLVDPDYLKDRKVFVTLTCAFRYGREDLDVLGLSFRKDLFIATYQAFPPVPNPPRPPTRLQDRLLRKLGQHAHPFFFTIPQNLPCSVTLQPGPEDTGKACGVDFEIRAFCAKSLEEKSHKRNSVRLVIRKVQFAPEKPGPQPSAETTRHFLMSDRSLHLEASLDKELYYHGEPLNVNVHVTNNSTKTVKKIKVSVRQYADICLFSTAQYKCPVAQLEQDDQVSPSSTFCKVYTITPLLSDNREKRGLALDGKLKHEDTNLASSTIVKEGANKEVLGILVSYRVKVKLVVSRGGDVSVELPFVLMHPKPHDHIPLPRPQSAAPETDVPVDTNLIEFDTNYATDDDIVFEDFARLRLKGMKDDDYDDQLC

mu-opioid receptor [2] = molecular target: T1, mu-opioid receptor; test: biochemical; conditions: read-out: GTP Activity
Target sequence in this assay (P35372 whole entry, species assumed): as the sequence (P35372 whole entry, species assumed) above

[3] = […], class symbol combines EC50 and efficacy

SMILES | EC50 (mu-opioid receptor [1]) [nM] | EC50 (mu-opioid receptor [2]; class symbols) [nM] | EC50 (mu-opioid receptor [2]; [3]) [nM]
COc1cc(OC)cc(N2C(N)=C(c3nc4ccccc4[nH]3)C(=O)C2C)c1 (stereo not shown) [compound 1] | < 10000 | 100 to 1000 | 
COc1cc(OC)cc(N2C(N)=C(c3nc4ccccc4[nH]3)C(=O)C2(C)C)c1 [compound 2] | < 10000 | 100 to 1000 | 
CCC1C(=O)C(c2nc3ccccc3[nH]2)=C(N)N1c1cc(OC)cc(OC)c1 (stereo not shown) [compound 54] | < 10000 | 100 to 1000 | 
COc1cc(OC)cc(N2C(N)=C(c3nc4ccccc4[nH]3)C(=O)C2C(C)C)c1 (stereo not shown) [compound 55] | < 10000 | 100 to 1000 | 
CNC1=C(c2nc3ccccc3[nH]2)C(=O)CN1c1cc(OC)cc(OC)c1 [compound 58] | < 10000 | 100 to 1000 | 
CNC1=C(c2nc3ccccc3[nH]2)C(=O)C(C)(C)N1c1cc(OC)cc(OC)c1 [compound 79] | < 10000 | < 100 | 
COc1cc(OC)cc(N2C(N)=C(c3nc4ccccc4[nH]3)C(=O)[C@H]2C)c1 [compound 82] | < 10000 | < 100 | 
CCNC1=C(c2nc3ccccc3[nH]2)C(=O)CN1c1cc(OC)cc(OC)c1 [compound 88] | < 10000 | 100 to 1000 | 
CCNC1=C(c2nc3ccccc3[nH]2)C(=O)C(C)(C)N1c1cc(OC)cc(OC)c1 [compound 89] | < 10000 | < 100 | 
COc1cc(OC)cc(N2C(NC(C)C)=C(c3nc4ccccc4[nH]3)C(=O)C2(C)C)c1 [compound 90] | < 10000 | 100 to 1000 | 
CC[C@H]1C(=O)C(c2nc3ccccc3[nH]2)=C(N)N1c1cc(OC)cc(OC)c1 [compound 96] | < 10000 | < 100 | 
COc1cc(OC)cc(N2C(N)=C(c3nc4ccccc4[nH]3)C(=O)[C@@H]2C(C)C)c1 [compound 98] | < 10000 | < 100 | 
CCC(=O)N1CC2(C1)C(=O)C(c1nc3ccccc3[nH]1)=C(N)N2c1cc(OC)cc(OC)c1 [compound 249] |  |  | 1000 to 10000
COc1cc(OC)cc(N2C(N)=C(c3nc4ccccc4[nH]3)C(=O)C23CN(C(=O)c2ccccc2)C3)c1 [compound 250] |  |  | 1000 to 10000
COc1cc(OC)cc(N2C(N)=C(c3nc4ccccc4[nH]3)C(=O)C23CN(S(C)(=O)=O)C3)c1 [compound 251] |  |  | 100 to 1000
CNC1=C(c2nc3ccccc3[nH]2)C(=O)C(CCN)N1c1cc(OC)cc(OC)c1 (stereo not shown) [compound 253] |  |  | 100 to 1000
COc1cc(OC)cc(N2C(N)=C(c3nc4ccccc4[nH]3)C(=O)C2CCN(C)C(C)=O)c1 (stereo not shown) [compound 256] |  |  | 100 to 1000
COc1cc(OC)cc(N2C(N)=C(c3nc4ccccc4[nH]3)C(=O)C2CCN(C)C(=O)c2ccccc2)c1 (stereo not shown) [compound 257] |  |  | 100 to 1000
COc1cc(OC)cc(N2C(N)=C(c3nc4ccccc4[nH]3)C(=O)[C@]23C[C@H](O)C3)c1 [compound 258] |  |  | 100 to 1000
CNC1=C(c2nc3ccccc3[nH]2)C(=O)C2(CC(O)C2)N1c1cc(OC)cc(OC)c1 (stereo not shown) [compound 259] |  |  | < 100
CNC1=C(c2nc3ccccc3[nH]2)C(=O)[C@]2(C[C@H](O)C2)N1c1cc(OC)cc(OC)c1 [compound 260] |  |  | 100 to 1000
CNC1=C(c2nc3ccccc3[nH]2)C(=O)[C@@](C)(CCO)N1c1cc(OC)cc(OC)c1 [compound 261] |  |  | 100 to 1000

SMILES | EC50 (mu-opioid receptor [1]) [nM] | EC50 (mu-opioid receptor [2]; class symbols) [nM] | EC50 (mu-opioid receptor [2]; [3]) [nM]
CNC1=C(c2nc3ccccc3[nH]2)C(=O)[C@](C)(CCO)N1c1cc(OC)cc(OC)c1 [compound 262] |  |  | < 100
CNC1=C(c2nc3ccccc3[nH]2)C(=O)C(CO)(CO)N1c1cc(OC)cc(OC)c1 [compound 263] |  |  | 100 to 1000
CNC1=C(c2nc3ccccc3[nH]2)C(=O)C(CO)(CCl)N1c1cc(OC)cc(OC)c1 (stereo not shown) [compound 264] |  |  | 100 to 1000
CNc1c(-c2nc3ccccc3[nH]2)c(=O)n(CCO)n1-c1cc(OC)cc(OC)c1 [compound 265] |  |  | 100 to 1000
CNc1c(-c2nc3ccccc3[nH]2)c(=O)n(CCOC)n1-c1cc(OC)cc(OC)c1 [compound 266] |  |  | < 100
CNc1c(-c2nc3ccccc3[nH]2)c(=O)n(CCCO)n1-c1cc(OC)cc(OC)c1 [compound 267] |  |  | < 100
CNc1c(-c2nc3ccccc3[nH]2)c(=O)n(C2CCC2)n1-c1cc(OC)cc(OC)c1 [compound 269] |  |  | 100 to 1000
CNc1c(-c2nc3ccccc3[nH]2)c(=O)n(C2COC2)n1-c1cc(OC)cc(OC)c1 [compound 270] |  |  | < 100
CNc1c(-c2nc3ccccc3[nH]2)c(=O)n(CCNC(C)=O)n1-c1cc(OC)cc(OC)c1 [compound 271] |  |  | 100 to 1000
CNC1=C(c2nc3ccccc3[nH]2)C(=O)C2(CCCN(C(C)=O)C2)N1c1cc(OC)cc(OC)c1 (stereo not shown) [compound 273] |  |  | 100 to 1000
CNC1=C(c2nc3ccccc3[nH]2)C(=O)C2(CNC(=O)C2)N1c1cc(OC)cc(OC)c1 (stereo not shown) [compound 274] |  |  | 100 to 1000
CNC1=C(c2nc3ccccc3[nH]2)C(=O)C2(CC(=O)C2)N1c1cc(OC)cc(OC)c1 [compound 275] |  |  | < 100
CNC1=C(c2nc3ccccc3[nH]2)C(=O)C(C)(CC(C)=O)N1c1cc(OC)cc(OC)c1 (stereo not shown) [compound 276] |  |  | 100 to 1000
CNC1=C(c2nc3ccccc3[nH]2)C(=O)C(C)(C(C)=O)N1c1cc(OC)cc(OC)c1 (stereo not shown) [compound 277] |  |  | 100 to 1000
CNC1=C(c2nc3ccccc3[nH]2)C(=O)C(C)(c2ccco2)N1c1cc(OC)cc(OC)c1 (stereo not shown) [compound 278] |  |  | 100 to 1000
CNC1=C(c2nc3ccccc3[nH]2)C(=O)C(C(C)=O)N1c1cc(OC)cc(OC)c1 (stereo not shown) [compound 279] |  |  | < 100
CNC1=C(c2nc3ccccc3[nH]2)C(=O)C(C)(Cc2ccco2)N1c1cc(OC)cc(OC)c1 (stereo not shown) [compound 280] |  |  | 100 to 1000
CNC1=C(c2nc3ccccc3[nH]2)C(=O)C(C)(CNC(=O)COC)N1c1cc(OC)cc(OC)c1 (stereo not shown) [compound 283] |  |  | < 100
CNC1=C(c2nc3ccccc3[nH]2)C(=O)C(C)(CCNC(C)=O)N1c1cc(OC)cc(OC)c1 (stereo not shown) [compound 284] |  |  | < 100
CNC1=C(c2nc3ccccc3[nH]2)C(=O)C(C)(CCNC(=O)COC)N1c1cc(OC)cc(OC)c1 (stereo not shown) [compound 286] |  |  | < 100
CNC1=C(c2nc3ccccc3[nH]2)C(=O)C(CNC(=O)COC)N1c1cc(OC)cc(OC)c1 (stereo not shown) [compound 289] |  |  | < 100
COc1cc(OC)cc(N2C(N)=C(c3nc4ccccc4[nH]3)C(=O)C23CCCNC3)c1 (stereo not shown) [compound 293] |  |  | 1000 to 10000

SMILES | EC50 (mu-opioid receptor [1]) [nM] | EC50 (mu-opioid receptor [2]; class symbols) [nM] | EC50 (mu-opioid receptor [2]; [3]) [nM]
COc1cc(OC)cc(N2C(N)=C(c3nc4ccccc4[nH]3)C(=O)C23CCCN(C(C)=O)C3)c1 (stereo not shown) [compound 294] |  |  | 1000 to 10000
COc1cc(OC)cc(N2C(N)=C(c3nc4ccccc4[nH]3)C(=O)C23CCCOC3)c1 (stereo not shown) [compound 295] |  |  | 100 to 1000
COCC1(C)C(=O)C(c2nc3ccccc3[nH]2)=C(N)N1c1cc(OC)cc(OC)c1 (stereo not shown) [compound 296] |  |  | 100 to 1000
CNC1=C(c2nc3ccccc3[nH]2)C(=O)[C@](C)(COC)N1c1cc(OC)cc(OC)c1 [compound 297] |  |  | 100 to 1000
CNC1=C(c2nc3ccccc3[nH]2)C(=O)[C@@](C)(COC)N1c1cc(OC)cc(OC)c1 [compound 298] |  |  | < 100
CNC1=C(c2nc3ccccc3[nH]2)C(=O)[C@](C)(CCOC)N1c1cc(OC)cc(OC)c1 [compound 299] |  |  | 100 to 1000
CNC1=C(c2nc3ccccc3[nH]2)C(=O)[C@@](C)(CCOC)N1c1cc(OC)cc(OC)c1 [compound 300] |  |  | < 100
COc1cc(OC)cc(N2C(N)=C(c3nc4ccccc4[nH]3)C(=O)[C@]2(C)CCNC(C)=O)c1 [compound 301] |  |  | 100 to 1000
COc1cc(OC)cc(N2C(N)=C(c3nc4ccccc4[nH]3)C(=O)[C@@]2(C)CCNC(C)=O)c1 [compound 302] |  |  | 100 to 1000
CNC1=C(c2nc3ccccc3[nH]2)C(=O)[C@@](C)(CCNC(C)=O)N1c1cc(OC)cc(OC)c1 [compound 304] |  |  | < 100
CNC1=C(c2nc3ccccc3[nH]2)C(=O)[C@@]2(CCCOC2)N1c1cc(OC)cc(OC)c1 [compound 306] |  |  | 100 to 1000
CNC1=C(c2nc3ccccc3[nH]2)C(=O)C(C)(CC(C)O)N1c1cc(OC)cc(OC)c1 (stereo not shown) [compound 309] |  |  | < 100
CNC1=C(c2nc3ccccc3[nH]2)C(=O)C2(CCC(O)C2)N1c1cc(OC)cc(OC)c1 (stereo not shown) [compound 311] |  |  | < 100
CNC1=C(c2nc3ccccc3[nH]2)C(=O)C2(CCC(=O)C2)N1c1cc(OC)cc(OC)c1 (stereo not shown) [compound 312] |  |  | < 100
CCOC(=O)C1CC2(CC1=O)C(=O)C(c1nc3ccccc3[nH]1)=C(N)N2c1cc(OC)cc(OC)c1 (stereo not shown) [compound 313] |  |  | 1000 to 10000
[2H]C1CC2(CC1=O)C(=O)C(c1nc3ccccc3[nH]1)=C(NC)N2c1cc(OC)cc(OC)c1 (stereo not shown) [compound 314] |  |  | < 100
CNC1=C(c2nc3ccccc3[nH]2)C(=O)[C@H](CNC(=O)COC)N1c1cc(OC)cc(OC)c1 [compound 315] |  |  | < 100
CNC1=C(c2nc3ccccc3[nH]2)C(=O)[C@@H](CNC(=O)COC)N1c1cc(OC)cc(OC)c1 [compound 316] |  |  | < 100
CNC1=C(c2nc3ccccc3[nH]2)C(=O)[C@](C)(CNC(=O)COC)N1c1cc(OC)cc(OC)c1 [compound 317] |  |  | 100 to 1000
CNC1=C(c2nc3ccccc3[nH]2)C(=O)[C@@](C)(CNC(=O)COC)N1c1cc(OC)cc(OC)c1 [compound 318] |  |  | < 100
